Columns and labels:
[1] = test system: DNA; experiment: Binding affinity to Bos taurus (calf) thymus DNA assessed as hypochromicity at 15 uM by spectrophotmetry analysis; format: nucleic-acid assay
[2] = test system: HL-60; experiment: Cytotoxicity against Homo sapiens (human) HL60 cells after 48 hr by trypan blue assay; format: functional, cell-based; conditions: HL-60, 48 h
[3] = test system: MCF7; experiment: Cytotoxicity against Homo sapiens (human) MCF7 cells after 48 hr by trypan blue assay; format: functional, cell-based; conditions: MCF7, 48 h

| Activity [1] [%] | SMILES | IC50 [2] [µM] | IC50 [3] [µM] |
| --- | --- | --- | --- |
| 29 | Cc1cc(C)c2c(=O)c3ccccc3n(CCCCN3CCCC3)c2c1 | 14.1 | 4.56 |
| 53 | Cc1cc(C)c2c(=O)c3ccccc3n(CCCCN3CCN(CCO)CC3)c2c1 | 11 | 4 |
| 48 | Cc1cc(C)c2c(=O)c3ccccc3n(CCCN3CCN(C)CC3)c2c1 | 15.4 | 28.5 |
| 35 | Cc1cc(C)c2c(=O)c3ccccc3n(CCCCN3CCOCC3)c2c1 | 0.51 | 8.45 |
| 50 | Cc1cc(C)c2c(=O)c3ccccc3n(CCCCN3CCCCC3)c2c1 | 1.41 | 6.67 |
| 51 | Cc1cc(C)c2c(=O)c3ccccc3n(CCCCN3CCN(C)CC3)c2c1 | 1.74 | 8.96 |
| 13 | Cc1cc(C)c2c(=O)c3ccccc3n(CCCN3CCOCC3)c2c1 | 13.7 | 43.9 |
| 52 | Cc1cc(C)c2c(=O)c3ccccc3n(CCCN3CCN(CCO)CC3)c2c1 | 10.9 | 7.87 |

More lines, now with the values behind:

| SMILES | Activity [1] [%] | IC50 [2] [µM] | IC50 [3] [µM] |
| --- | --- | --- | --- |
| CCN(CC)CCCCn1c2ccccc2c(=O)c2c(C)cc(C)cc21 | 52 | 0.45 | 7.98 |
| Cc1cc(C)c2c(=O)c3ccccc3n(CCCCl)c2c1 | – | 16.4 | 54.4 |
| CCN(CC)CCCn1c2ccccc2c(=O)c2c(C)cc(C)cc21 | 40 | 1.65 | 11.2 |
| Cc1cc(C)c2c(=O)c3ccccc3[nH]c2c1 | – | 20 | 78.9 |
| O=P1(N(CCCl)CCCl)NCCCO1 (stereo unspecified) [CYCLOPHOSPHAMIDE ANHYDROUS] | – | – | 0.16 |
| Cc1cc(C)c2c(=O)c3ccccc3n(CCCN3CCCC3)c2c1 | – | 14.6 | 19.7 |
| Cc1cc(C)c2c(=O)c3ccccc3n(CCCCCl)c2c1 | – | 14.2 | 34.4 |
| Cc1cc(C)c2c(=O)c3ccccc3n(CCCN3CCCCC3)c2c1 | – | 14.1 | 34.6 |

Reference: ChEMBL document CHEMBL3045043, “Synthesis, chemical characterization of novel 1,3-dimethyl acridones as cytotoxic agents, and their DNA-binding studies” (Med Chem Res, 2010)
